The values that follow come from US11433082B2, “Composition containing sulfoalkyl ether cyclodextrin and latanoprost” (CyDex Pharmaceuticals, Inc., priority 2008, dated 2022).

Holding throughout (assay type): physicochemical
A short description of data set [1]: Hydrolytic stability of aqueous compositions of latanoprost at 60° C. As to conditions: compared to a solution excluding SAE-CD. The procedure:
Latanoprost was measured in weighting boats (size 4×12×4 mm) by using a microbalance. The boats were put into 50 mL volumetric flask and 10 mM or 100 mM isotonic phosphate buffer (pH 5.5, 6.7 and 8.0) was added to the flask. The flask was shaken, sonicated and vortexed over an hour. The solution was filtered through a PVDF filter with 20 mL of plastic syringe. SBE-β-CyD 0, 1, 2.5, 5% w/v or BAK 0.02% were measured into 6-dram amber vials, and the filtered latanoprost solution (12 mL) was added to each vials. The vials were shaken for a few minutes at R.T, and then there were kept at 60° C. At various time points, the latanoprost in the aliquots was assayed by HPLC and the solution pH's were measured.

Data set [2] is described as follows: Photolytic (UV-B) stability of aqueous compositions of latanoprost. As to conditions: SAE-CD 1% or 5% w/v, pH 6.7, UV-B, compared to a solution excluding SAE-CD. The procedure:
Latanoprost was measured in weighing boats (size 4×12×4 mm) by using a microbalance. The boats were put into 50 mL volumetric flask and 100 mM isotonic phosphate buffer (pH 6.7) was added to the flask. The flask was shaken, sonicated and vortexed over an hour. The solution was filtered through a PVDF filter with 20 mL of plastic syringe. SBE-β-CD 0, 1, 5% w/v and BAK 0.02% w/v were measured into each 10 mL volumetric flask and the filtered latanoprost solution were added to them. The flasks were shaken for a few minutes at R.T, and then these solutions and XALATAN® were put into quartz vessels. The Rayonet photochemical chamber reactor was used for the irradiation with RMR-3000A lamp. At various time points, the latanoprost in the aliquots was assayed by HPLC, and the solution pH's were measured before and after the light irradiation.

Data set [3] is described as follows: Phase solubility of latanoprost in the presence of SBE-β-CD (CAPTISOL). The conditions noted are these: for pH: filtered supernatant. The procedure:
SAE-CD increases the aqueous solubility of latanoprost. The phase solubility curve (FIG. 1) for latanoprost in the presence of SBE-β-CD (CAPTISOL®) was obtained according to Example 5. The intrinsic solubility of latanoprost in water, and in the absence of any solubilizing agent, is about 40 μg/mL. The invention provides a method of increasing the solubility of latanoprost in an aqueous composition, the method comprising including SAE-CD and latanoprost in the aqueous composition, wherein the molar ratio of SAE-CD to latanoprost, pH, concentration of SAE-CD, and concentration of latanoprost are as defined herein. In some embodiments, the SAE-CD increases the aqueous solubility of latanoprost by at least 10-fold.
Aqueous compositions containing latanoprost and different amounts of SBE-β-CD were prepared. Latanoprost (1 mg was measured into aluminum weighing boats (size 4×12×4 mm) by using a microbalance. The boats were put into the amber glass vials (Kimble vial, 1 dram) with Teflon-lined screw caps. Using a Rainin pipetman, 2.0 mL of SBE-β-CD test solution (0, 5, 10, or 20% w/v) were added to each vial. Each vial was capped, vortexed, placed on a rocker platform and gently mixed at room temperature. After 24 hours, the test vials were removed from the rocker platform, the solutions were centrifuged at 2500 rpm for 5 min, and the supernatants were filtered through 0.22 micron Millipore PVDF Millex-GV filters and the pH measured. The latanoprost in the aliquots was assayed by HPLC.

Molecules are shown by their SMILES. Where two headings read alike, the source gives them in different places.

Broadly, the solubility is the concentration that dissolves in the medium under given conditions. For the molecule `CC(C)OC(=O)CCC/C=C\C[C@@H]1[C@@H](CC[C@@H](O)CCc2ccccc2)[C@H](O)C[C@@H]1O` [Latanoprost, isopropyl (Z)-7-[(1R,2R,3R,5S)-3,5-dihydroxy-2-[(3R)3-hydroxy-5-phenylpentyl]-cyclopentyl]hept-5-enoate], the “hydrolytic degradation of latanoprost” value was “sufficient to suppress hydrolytic degradation” in data set [1] (SAE-CD 1% or 5% w/v, pH 5.5 and 6.7, 60° C.); “substantially reduce hydrolytic degradation” in data set [1] (SAE-CD, pH 8, 60° C.). Further, the “photolytic degradation of latanoprost” value in data set [2] is on record as “sufficient to suppress photolytic degradation”. The solubility at 24 h in data set [3] (aqueous 5% w/v SBE-β-CD (CAPTISOL) solution, pH 7.41, aqueous with cosolvent or surfactant or cyclodextrin, thermodynamic from solid, with 5% w/v CAPTISOL, room temperature, 24 hours, read-out: Latanoprost (solubility)) was greater than 500 µg/mL; in data set [3] (aqueous 10% w/v SBE-β-CD (CAPTISOL) solution, pH 6.93, aqueous with cosolvent or surfactant or cyclodextrin, thermodynamic from solid, with 10% w/v CAPTISOL, room temperature, 24 hours, read-out: Latanoprost (solubility)) it was greater than 500 µg/mL; in data set [3] (aqueous SBE-β-CD (SAE-CD, CAPTISOL) solution, aqueous with cosolvent or surfactant or cyclodextrin, thermodynamic from solid, solutions containing at least 5% w/v of SAE-CD, read-out: solubility of latanoprost), greater than 500 µg/mL; in data set [3] (aqueous test solution without SBE-β-CD (0% w/v), pH 8.57, water, thermodynamic from solid, without CAPTISOL, room temperature, 24 hours, read-out: Latanoprost (solubility)), 40 µg/mL. Moreover, the pH in data set [3] (with 5% w/v CAPTISOL) was found to be 7.41; in data set [3] (with 10% w/v CAPTISOL), 6.93; in data set [3] (without CAPTISOL) it was 8.57. Also, in data set [3] (water, thermodynamic from solid, in the absence of any solubilizing agent, read-out: intrinsic solubility of latanoprost in water), the solubility is roughly 40 µg/mL.
